How the values were obtained:
[1] = tested on: Human immunodeficiency virus 1; assay: Antiviral activity against wild type HIV-1 P1 infected in human C8166 cells assessed as reduction in viral RNA production at 25 nM; type: functional; conditions: Human immunodeficiency virus 1, P1, C8166
[2] = Selectivity ratio of CC50 for human MT4 cells to EC50 for antiviral activity against HIV-1 NL4-3 infected in human MT4 cells; type: toxicity, cell-based; conditions: read-out: Ratio CC50/EC50
[3] = tested on: Human immunodeficiency virus 1; assay: Resistance index, ratio of EC50 for antiviral activity against HIV1 harboring RT K103N/Y181C double mutant infected in human MT4 cells to EC50 for antiviral activity against HIV1 NL4-3 infected in human MT4 cells; type: functional
[4] = Inhibition of RNA-dependent DNA polymerase activity of recombinant HIV-1 p66/p51 reverse transcriptase K103N/Y181C mutant assessed as inhibition of [3H]dTTP incorporation using poly(rA)/oligo(dT) as templates incubated for 15 mins by MicroBeta scintillation counting method; set-up: species or system Human immunodeficiency virus 1
[5] = tested on: Human immunodeficiency virus 1; assay: Antiviral activity against HIV1 harboring RT K103N mutant infected in human MT4 cells assessed as protection against virus-induced cytopathic effect by MTT assay; type: functional, organism-based; conditions: Human immunodeficiency virus 1, MT4
[6] = tested on: Human immunodeficiency virus 1; assay: Antiviral activity against wild type HIV-1 P1 infected in human C8166 cells assessed as reduction in viral p24 antigen production at 25 nM; type: functional; conditions: Human immunodeficiency virus 1, P1, C8166
[7] = tested on: Human immunodeficiency virus 1; assay: Antiviral activity against HIV-1 NL4-3 infected in human MT-4 cells assessed as virus induced cytopathic effect by MTT assay; type: functional, organism-based; conditions: Human immunodeficiency virus 1, NL4-3, MT4
[8] = tested on: Human immunodeficiency virus 1; assay: Antiviral activity against HIV1 harboring RT Y181C mutant infected in human MT4 cells assessed as protection against virus-induced cytopathic effect by MTT assay; type: functional, organism-based; conditions: Human immunodeficiency virus 1, MT4
[9] = molecular target: Human immunodeficiency virus type 1 reverse transcriptase (Human immunodeficiency virus 1, UniProt Q72547, K103N); assay: Inhibition of RNA-dependent DNA polymerase activity of recombinant HIV-1 p66/p51 reverse transcriptase K103N mutant assessed as inhibition of [3H]dTTP incorporation using poly(rA)/oligo(dT) as templates incubated for 15 mins by MicroBeta scintillation counting method
[10] = tested on: Human immunodeficiency virus 1; assay: Resistance index, ratio of EC50 for antiviral activity against HIV1 harboring RT Y181C mutant infected in human MT4 cells to EC50 for antiviral activity against HIV1 NL4-3 infected in human MT4 cells; type: functional
[11] = tested on: Human immunodeficiency virus 1; assay: Antiviral activity against wild type HIV-1 P1 infected in human C8166 cells assessed as reduction in viral RNA production at 1 nM; type: functional; conditions: Human immunodeficiency virus 1, P1, C8166
[12] = tested on: Human immunodeficiency virus 1; assay: Antiviral activity against HIV1 harboring RT K103N/Y181C double mutant infected in human MT4 cells assessed as protection against virus-induced cytopathic effect by MTT assay; type: functional, organism-based; conditions: Human immunodeficiency virus 1, MT4
[13] = tested on: Human immunodeficiency virus 1; assay: Antiviral activity against wild type HIV-1 P1 infected in human C8166 cells assessed as reduction in viral RNA production at 5 nM; type: functional; conditions: Human immunodeficiency virus 1, P1, C8166
[14] = Inhibition of RNA-dependent DNA polymerase activity of recombinant HIV-1 p66/p51 reverse transcriptase Y188L mutant assessed as inhibition of [3H]dTTP incorporation using poly(rA)/oligo(dT) as templates incubated for 15 mins by MicroBeta scintillation counting method; set-up: species or system Human immunodeficiency virus 1
[15] = molecular target: Human immunodeficiency virus type 1 reverse transcriptase (Human immunodeficiency virus 1, UniProt Q72547); assay: Inhibition of RNA-dependent DNA polymerase activity of wild type recombinant HIV-1 His-tagged p66/p51 reverse transcriptase assessed as inhibition of [3H]dTTP incorporation using poly(rA)/oligo(dT) as templates incubated for 15 mins by MicroBeta scintillation counting method
[16] = Cytotoxicity against human MT-4 cells assessed as reduction in cell viability by MTT assay; type: cell-based, MT4
[17] = tested on: Human immunodeficiency virus 1; assay: Antiviral activity against HIV1 harboring RT Y188L mutant infected in human MT4 cells assessed as protection against virus-induced cytopathic effect by MTT assay; type: functional, organism-based; conditions: Human immunodeficiency virus 1, MT4
[18] = tested on: Human immunodeficiency virus 1; assay: Resistance index, ratio of EC50 for antiviral activity against HIV1 harboring RT Y188L mutant infected in human MT4 cells to EC50 for antiviral activity against HIV1 NL4-3 infected in human MT4 cells; type: functional
[19] = tested on: Human immunodeficiency virus 1; assay: Resistance index, ratio of EC50 for antiviral activity against HIV1 harboring RT K103N mutant infected in human MT4 cells to EC50 for antiviral activity against HIV1 NL4-3 infected in human MT4 cells; type: functional

Question: For `Cc1cc(C)cc(S(=O)(=O)c2c(C(=O)NCc3cccc(O)c3)[nH]c3ccc(Cl)cc23)c1`, which inhibition at 0.025 µM [1] is on record?
Answer: The inhibition at 0.025 µM was 85%.

Question: What about the selectivity ratio [2] of the same compound?
Answer: The selectivity ratio was over 44900.

Question: And the “Ratio EC50” value [3]?
Answer: Its value is over 183.

Question: What about the IC50 [4] of the same compound?
Answer: Its IC50 is 45 nM.

Question: What about the EC50 [5] of the same compound?
Answer: The EC50 was under 0.6 nM.

Question: What about the inhibition at 0.025 µM [6] of the same compound?
Answer: Its inhibition at 0.025 µM is 55%.

Question: What about the EC50 [7] of the same compound?
Answer: Its EC50 is under 0.6 nM.

Question: And the EC50 [8]?
Answer: The EC50 was 11 nM.

Question: And the IC50 [9]?
Answer: Its IC50 is 2 nM.

Question: What about the “Ratio EC50” value [10] of the same compound?
Answer: The value was over 18.

Question: And the inhibition at 0.001 µM [11]?
Answer: The inhibition at 0.001 µM was 7%.

Question: And the EC50 [12]?
Answer: The EC50 was 110 nM.

Question: And the inhibition at 0.005 µM [13]?
Answer: Its inhibition at 0.005 µM is 38%.

Question: What about the IC50 [14] of the same compound?
Answer: The IC50 was 33 nM.

Question: And the IC50 [15]?
Answer: Its IC50 is 68 nM.

Question: What about the CC50 [16] of the same compound?
Answer: Its CC50 is 27000 nM.

Question: For `Cc1cc(C)cc(S(=O)(=O)c2c(C(=O)NC(C)C(=O)NCc3cccc(O)c3)[nH]c3ccc(Cl)cc23)c1` (configuration not stated), which selectivity ratio [2] is on record?
Answer: The selectivity ratio was over 39600.

Question: What about the “Ratio EC50” value [3] of the same compound?
Answer: Its value is over 5239.

Question: And the IC50 [4]?
Answer: The IC50 was 842 nM.

Question: And the EC50 [5]?
Answer: Its EC50 is 18.5 nM.

Question: And the EC50 [7]?
Answer: The EC50 was under 0.6 nM.

Question: And the EC50 [8]?
Answer: Its EC50 is 7.4 nM.

Question: And the EC50 [17]?
Answer: The EC50 was 3200 nM.

Question: And the IC50 [9]?
Answer: Its IC50 is 12 nM.

Question: What about the “Ratio EC50” value [18] of the same compound?
Answer: The value was over 5340.

Question: What about the “Ratio EC50” value [10] of the same compound?
Answer: Its value is 12.

Question: What about the EC50 [12] of the same compound?
Answer: Its EC50 is 3670 nM.

Question: And the “Ratio EC50” value [19]?
Answer: Its value is over 31.

Question: And the IC50 [14]?
Answer: The IC50 was 34 nM.

Question: What about the IC50 [15] of the same compound?
Answer: The IC50 was 208 nM.

Question: What about the CC50 [16] of the same compound?
Answer: The CC50 was 23800 nM.

Question: Which inhibition at 0.025 µM [1] does the source give for `Cc1cc(C)cc(S(=O)(=O)c2c(C(=O)NCc3ccccc3N)[nH]c3ccc(Cl)cc23)c1` here?
Answer: Its inhibition at 0.025 µM is 100%.

Question: What about the selectivity ratio [2] of the same compound?
Answer: The selectivity ratio was over 65900.

Question: And the “Ratio EC50” value [3]?
Answer: Its value is over 33.

Question: And the IC50 [4]?
Answer: The IC50 was 15 nM.

Question: And the EC50 [5]?
Answer: Its EC50 is under 0.7 nM.

Question: What about the inhibition at 0.025 µM [6] of the same compound?
Answer: Its inhibition at 0.025 µM is 90%.

Question: What about the EC50 [7] of the same compound?
Answer: The EC50 was under 0.7 nM.

Question: What about the EC50 [8] of the same compound?
Answer: The EC50 was under 0.7 nM.

Question: And the EC50 [17]?
Answer: Its EC50 is 2.1 nM.

Question: And the IC50 [9]?
Answer: Its IC50 is 7 nM.

Question: What about the “Ratio EC50” value [18] of the same compound?
Answer: Its value is over 3.

Question: What about the EC50 [12] of the same compound?
Answer: The EC50 was 23.5 nM.

Question: What about the inhibition at 0.005 µM [13] of the same compound?
Answer: The inhibition at 0.005 µM was 10%.

Question: And the IC50 [14]?
Answer: Its IC50 is 57 nM.

Question: And the IC50 [15]?
Answer: Its IC50 is 19 nM.

Question: And the CC50 [16]?
Answer: Its CC50 is 46200 nM.

Reference: ChEMBL document CHEMBL4706559, “New indolylarylsulfone non-nucleoside reverse transcriptase inhibitors show low nanomolar inhibition of single and double HIV-1 mutant strains” (Eur J Med Chem, 2020)
